Test results published in patent US20260232648A1, “GROWTH HORMONE SECRETION PROMOTER” (SCOHIA PHARMA, INC., priority 2023, published 2026).

Experiments:
human SSTR 5 = target: T1, human SSTR 5 (Homo sapiens, UniProt P35346); assay: Radiolabeled ligand binding assay, human SSTR subtype selectivity; details: SSTR5 versus SSTR1-4, 1 μM
T1 construct: expressed in transfected cells; host or cells: CHO-K1 cells (membrane fraction)
Procedure: The selectivity of test compounds for human SSTR subtypes was investigated by radiolabeled ligand binding assay. The membrane fraction of CHO-K1 cells expressing human SSTR1-5 was suspended in am assay buffer (25 mM HEPES (pH 7.4), 5 mM MgCl2, 1 mM CaCl2), 10 μg/mL saponin, 0.5% fatty-acid free BSA) and incubated for 1 hr in the presence of 1 μM test compound 1 and [^125I]Tyr^11-somatostatin 14 (Perkin Elmer). Thereafter, the solution containing the membrane fraction was transferred onto a filter plate, and after washing the filter six times with a wash buffer (25 mM HEPES, 5 mM MgCl2, 1 mM CaCl2), 50 μL of Microscint 20 (Packard) was added, and the radioactivity was measured using a TopCount (Perkin Elmer). The results of competitive activity of the test compound against the binding of the human SSTR subtypes with the labeled ligands are shown in Table 2.

growth hormone secretion = assay: Growth hormone secretion enhancing action by single dose administration in human (Phase 1 study); type: in vivo
Procedure: (§1) The examples in this section show the measurement results of blood anterior pituitary hormone concentrations using blood samples from a dose escalation study targeting healthy Japanese adult men, from A Randomized, Double-Blind, Placebo-Controlled, Phase 1 Study (jRCT2051210027) targeting healthy adults, which was conducted to examine the safety and tolerability, pharmacokinetics, and pharmacodynamic action of a single administration of test compound 1.
In a randomized, double-blind, placebo-controlled, parallel-group comparison, dose-escalation study consisting of 7 cohorts, a single dose of test compound 1 (1, 3, 10, 20, 40, 80 and 160 mg) or placebo was orally administered under fasting conditions. Eight test subjects (6 in the active drug group and 2 in the placebo group) participated in each cohort. The concomitant use of all medications was prohibited from 28 days before hospitalization until discharge. […]
The concentration of anterior pituitary hormone was measured using blood from the placebo administration group of all cohorts and the test subjects who received administration of 1 mg or 10 mg of test compound 1, at 0.5 hr before administration and 2, 4, 6, 8, and 10 hr after administration. […]

[1] = test system: secretion of other anterior pituitary hormones; assay: Blood concentrations of other anterior pituitary hormones after single dose administration in human (Phase 1 study); type: in vivo; details: healthy Japanese adult men; single oral dose 1 mg or 10 mg
Procedure: as §1
In a randomized, double-blind, placebo-controlled, parallel-group comparison, dose-escalation study consisting of 7 cohorts, a single dose of test compound 1 (1, 3, 10, 20, 40, 80 and 160 mg) or placebo was orally administered under fasting conditions. Eight test subjects (6 in the active drug group and 2 in the placebo group) participated in each cohort. The concomitant use of all medications was prohibited from 28 days before hospitalization until discharge.
The test subjects were inspected and examined within 28-2 days and 1 day before administration of test compound 1, and eligibility was confirmed based on the above-mentioned inclusion criteria and exclusion criteria. […] They were fasted for 10 hr before administration and 4 hr after administration until lunch, and took lunch at 13:[…]. The blood was collected 0.5 hr before and 1, 2, 4, 6, 8, and 10 hr after administration of test compound 1.
The concentration of anterior pituitary hormone was measured using blood from the placebo administration group of all cohorts and the test subjects who received administration of 1 mg or 10 mg of test compound 1, at 0.5 hr before administration and 2, 4, 6, 8, and 10 hr after administration. The concentrations of growth hormone, follicle-stimulating hormone, luteinizing hormone, thyroid-stimulating hormone, adrenocorticotropic hormone, and prolactin in blood were measured using the Human Growth Hormone Quantikine ELISA Kit (manufactured by R&D Systems), Follicle-Stimulating Hormone (Human) ELISA Kit (manufactured by Cayman Chemical), Luteinizing Hormome (Human) ELISA Kit (manufactured by Cayman Chemical), U-TSH ELISA (manufactured by BIOCHECK), ACTH ELISA Kit (manufactured by MB Biosciences GmbH), and Human Prolactin Quantikine ELISA Kit (manufactured by R&D Systems) according to the protocol described in the package insert of each kit.
The time course changes in the blood anterior pituitary hormone concentrations after oral administration of placebo (n=14) or test compound 1 at doses of 1 mg and 10 mg (n=6 for each) are shown in FIG. 1-6.

T1 sequence (P35346 whole entry): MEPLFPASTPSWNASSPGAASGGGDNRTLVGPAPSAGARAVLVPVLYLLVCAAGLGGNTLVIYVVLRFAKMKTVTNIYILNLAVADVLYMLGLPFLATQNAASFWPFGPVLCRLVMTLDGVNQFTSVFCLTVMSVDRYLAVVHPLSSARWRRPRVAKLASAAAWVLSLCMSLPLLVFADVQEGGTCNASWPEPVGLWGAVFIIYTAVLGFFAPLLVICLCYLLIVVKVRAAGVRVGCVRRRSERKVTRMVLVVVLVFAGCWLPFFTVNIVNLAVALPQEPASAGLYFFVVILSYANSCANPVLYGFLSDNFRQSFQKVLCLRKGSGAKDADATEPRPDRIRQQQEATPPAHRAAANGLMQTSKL

selectivity of binding among the human SSTR subtypes (human SSTR 5): selectively binds to SSTR5
secretion of adrenocorticotropic hormone (blood concentration) [1]: did not substantially affect
secretion of follicle-stimulating hormone (blood concentration) [1]: did not substantially affect
secretion of luteinizing hormone (blood concentration) [1]: did not substantially affect
secretion of prolactin (blood concentration) [1]: did not substantially affect
secretion of thyroid-stimulating hormone (blood concentration) [1]: did not substantially affect
SMILES: CCCc1nc2c(cc1C(=O)O)C(=O)N(C1CCN(Cc3cc(C4CC4)c(-c4ccc(F)cc4)cc3OCC)CC1)CC2 [test compound 1, 6-(1-((2-cyclopropyl-5-ethoxy-4′-fluorobiphenyl-4-yl)methyl)piperidin-4-yl)-5-oxo-2-propyl-5,6,7,8-tetrahydro-1,6-naphthyridine-3-carboxylic acid]
growth hormone secretion (blood growth hormone concentration) (growth hormone secretion; healthy Japanese adult men, single oral dose 1 mg or 10 mg, fasting, 2-10 hr after administration): clearly enhance growth hormone secretion
increase in blood growth hormone concentration compared with growth hormone replacement therapy (growth hormone secretion; human, compared with literature values for patients with pediatric growth hormone deficiency): corresponds to the blood growth hormone concentration obtained by growth hormone replacement therapy
